Experimental data taken from patent US9321759B2, “Methods and use of bifunctional enzyme-building clamp-shaped molecules” (The Trustees Of The University Of Pennsylvania, priority 2011, dated 2016).

How the values were obtained:
EGFR [1] = molecular target: T1, EGFR (Homo sapiens, UniProt P00533); assay: Phosphorylation of EGFR Tyr residues in NE91 cells (Western blot); format: cell-based; design: expressed in transfected cells; host or cells: NE91 mouse fibroblasts; details: FIG. 3
Protocol: NE91 cells (mouse fibroblasts over-expressing wild type human type EGFR) were starved overnight, incubated with an exemplary mutation mimicking compound (designated EEO3, see below; 0.1 μM; lanes 2, 6 of FIG. 2), Tarceva® (0.1 μM; lanes 3, 7 of FIG. 2), or both (lanes 4, 8 of FIG. 2) for one hour, and harvested (lanes 1-4 of FIG. 2), or induced with EGF (50 ng/mL) for 15 minutes and harvested. Equal amounts of total protein were loaded on 10% SDS-PAGE gel, separated, transferred to a PVDF membrane, and probed with pY99, pERK antibodies (Santa Cruz Biotechnology), or antibodies against specific phosphotyrosines of EGFR (pY845, pY1068, pY992) or AKT phosphor-serine (473; Cell Signaling Technology). Total EGFR and γ-tubulin levels were determined as controls using the 1005 (Santa Cruz Biotechnology) and GTU88 (Sigma) Abs, respectively.
To estimate the inhibitory activity of Compound C318 on EGFR signaling, its effect on the phosphorylation of specific Tyr residues of EGFR kinase was tested (see FIG. 3). The methods used were the same as described in Example 3.

[2] = tested on: EGFR-over-expressing NE91 cells; assay: Anchorage independent growth (soft agar colony formation) of NE91 cells; format: cell-based, mouse; details: 0.1 μM, colonies counted after 3 weeks, FIG. 4(D)
Protocol: To evaluate the inhibitory effect of C318 on cell proliferation in vitro, the compound was tested for inhibition of the anchorage independent growth of EGFR-over-expressing NE91 cells (FIG. 4). Anchorage independent growth was determined by assessing the colony-forming efficiency of cells suspended in soft agar. Cells (5×10^3) were suspended in a 1 ml top layer (0.375% agarose 10% FBS/DMEM) in 6-cm culture dishes containing a 3 ml cell-free feeder layer consisting of 0.5% agarose in DMEM supplemented with 10% FBS and 20 mM Hepes (pH 7.5). Culture dishes were fed by 0.7 ml 10% FBS/DMEM containing 0.1 uM of C318 or Tarceva® once every 5 days. Colonies were visualized and counted after 3 weeks after staining with p-iodonitrotetrazolium violet (1 mg/ml).

EGFR (L858R, T790M) = molecular target: T2, EGFR (L858R, T790M) (Homo sapiens, UniProt P00533, L858R/T790M); assay: Kinase assay with Tarceva-resistant EGFR mutant, HotSpot technology; format: biochemical
T2 construct: purchased Reaction Biology Corp. (Malvern, Pa.)
Protocol: (§1) In an additional set of tests, EGFR assays were done to determine IC50 values using HotSpot^SM technology with the peptide substrate poly[Glu:Tyr] (4:1, 0.2 mg/ml). These tests were conducted by Reaction Biology Corp. (Malvern, Pa.; http://www.reactionbiology.com). Kinase reactions were carried out in 20 mmol/L HEPES (pH 7.5), 10 mmol/L MgCl2, 1 mmol/L EGTA, 0.02% Brij 35, 0.02 mg/mL bovine serum albumin, 2 mmol/L DTT, and 1% DMSO. The final concentration of ATP was 10 μmol/L. Purified recombinant kinases were incubated with serial 3-fold dilutions of test compounds starting at a final concentration of 1 μmol/L. ATP concentration was 10 μmol/L. Dose response curves were fitted using Prism 5.0 from Graph-Pad Software.
All these inhibitors were also tested by the same kinase assay using the Tarceva®-resistant EGFR kinase mutant, EGFR (L858R, T790M).

EGFR [3] = molecular target: T1, EGFR; assay: EGFR kinase assay, HotSpot technology; format: biochemical; design: purchased Reaction Biology Corp. (Malvern, Pa.); details: ATP 10 μmol/L, substrate poly[Glu:Tyr]
Protocol: as §1

T1 sequence (P00533 25-1210): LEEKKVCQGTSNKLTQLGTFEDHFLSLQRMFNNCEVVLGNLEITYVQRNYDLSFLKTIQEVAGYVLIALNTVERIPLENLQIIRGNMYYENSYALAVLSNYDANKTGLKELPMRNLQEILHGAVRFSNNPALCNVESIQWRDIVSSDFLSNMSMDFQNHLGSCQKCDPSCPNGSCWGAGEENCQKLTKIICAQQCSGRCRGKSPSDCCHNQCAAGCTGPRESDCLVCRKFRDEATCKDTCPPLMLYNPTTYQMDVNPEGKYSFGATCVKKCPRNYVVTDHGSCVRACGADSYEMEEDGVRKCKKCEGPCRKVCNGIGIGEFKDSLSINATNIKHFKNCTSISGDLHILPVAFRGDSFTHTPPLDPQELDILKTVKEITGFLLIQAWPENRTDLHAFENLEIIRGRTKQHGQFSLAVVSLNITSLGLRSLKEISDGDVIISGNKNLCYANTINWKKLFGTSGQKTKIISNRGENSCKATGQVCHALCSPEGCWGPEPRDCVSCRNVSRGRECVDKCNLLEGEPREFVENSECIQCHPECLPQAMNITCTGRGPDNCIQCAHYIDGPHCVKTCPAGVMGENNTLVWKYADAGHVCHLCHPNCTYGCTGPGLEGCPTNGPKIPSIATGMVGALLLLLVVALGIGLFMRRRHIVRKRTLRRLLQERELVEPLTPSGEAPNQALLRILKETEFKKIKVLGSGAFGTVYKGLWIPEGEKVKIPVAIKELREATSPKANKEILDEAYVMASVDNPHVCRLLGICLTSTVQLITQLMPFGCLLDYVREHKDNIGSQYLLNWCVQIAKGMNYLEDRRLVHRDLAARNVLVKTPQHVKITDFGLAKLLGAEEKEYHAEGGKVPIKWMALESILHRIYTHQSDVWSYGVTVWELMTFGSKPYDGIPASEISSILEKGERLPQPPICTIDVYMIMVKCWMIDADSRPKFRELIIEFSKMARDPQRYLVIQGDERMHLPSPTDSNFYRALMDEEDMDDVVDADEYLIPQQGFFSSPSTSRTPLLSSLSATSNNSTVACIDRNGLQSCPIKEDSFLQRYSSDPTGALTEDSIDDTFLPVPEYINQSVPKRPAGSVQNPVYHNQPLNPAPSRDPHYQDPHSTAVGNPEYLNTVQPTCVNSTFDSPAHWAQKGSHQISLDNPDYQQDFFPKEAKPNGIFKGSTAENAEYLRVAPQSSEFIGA
T2 sequence (P00533 25-1210 T790M/L858R): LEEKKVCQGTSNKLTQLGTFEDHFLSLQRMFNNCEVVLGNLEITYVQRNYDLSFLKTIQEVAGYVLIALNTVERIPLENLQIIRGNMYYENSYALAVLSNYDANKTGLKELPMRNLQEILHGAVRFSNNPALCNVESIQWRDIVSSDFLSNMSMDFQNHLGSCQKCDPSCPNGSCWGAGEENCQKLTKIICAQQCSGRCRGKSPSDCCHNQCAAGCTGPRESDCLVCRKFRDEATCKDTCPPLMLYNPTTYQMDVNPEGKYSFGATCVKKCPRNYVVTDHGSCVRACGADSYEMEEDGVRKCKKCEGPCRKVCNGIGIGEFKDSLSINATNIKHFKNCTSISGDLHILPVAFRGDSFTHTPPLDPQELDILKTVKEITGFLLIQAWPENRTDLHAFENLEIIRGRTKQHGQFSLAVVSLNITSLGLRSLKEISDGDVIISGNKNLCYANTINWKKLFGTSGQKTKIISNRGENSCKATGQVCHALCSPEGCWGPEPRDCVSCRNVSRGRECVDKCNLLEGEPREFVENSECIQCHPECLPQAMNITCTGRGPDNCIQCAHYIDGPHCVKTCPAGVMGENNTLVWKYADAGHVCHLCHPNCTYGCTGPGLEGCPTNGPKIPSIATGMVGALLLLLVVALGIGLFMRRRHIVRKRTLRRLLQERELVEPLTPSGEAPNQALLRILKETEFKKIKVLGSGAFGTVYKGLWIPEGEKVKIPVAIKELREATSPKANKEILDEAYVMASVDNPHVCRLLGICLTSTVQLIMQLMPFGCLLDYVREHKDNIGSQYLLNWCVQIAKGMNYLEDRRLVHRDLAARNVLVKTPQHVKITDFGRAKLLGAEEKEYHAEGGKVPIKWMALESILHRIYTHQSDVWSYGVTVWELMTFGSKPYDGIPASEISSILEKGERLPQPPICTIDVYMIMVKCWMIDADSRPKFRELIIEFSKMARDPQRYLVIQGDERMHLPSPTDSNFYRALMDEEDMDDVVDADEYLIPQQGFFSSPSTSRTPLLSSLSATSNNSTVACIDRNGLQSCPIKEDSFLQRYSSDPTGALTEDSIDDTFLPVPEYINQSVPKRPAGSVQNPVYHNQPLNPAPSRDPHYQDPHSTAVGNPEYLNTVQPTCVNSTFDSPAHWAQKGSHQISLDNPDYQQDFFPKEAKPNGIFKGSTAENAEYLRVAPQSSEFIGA

O=C(CSCCO)Nc1ccc2ncnc(Nc3cc(Cl)c(Cl)cc3F)c2c1 [Compound C300]
inhibitory effects on EGFR Tyr phosphorylation relative to C-318 (EGFR [1]): not as strong as that of C-318

O=C(CSc1nnc(SCC2CC2)s1)Nc1ccc2ncnc(Nc3cc(Cl)c(Cl)cc3F)c2c1 [Compound C318F]
inhibitory effects on EGFR Tyr phosphorylation relative to C-318 (EGFR [1]): not as strong as that of C-318

O=C(O)CC(Sc1nnc(SCC(=O)Nc2ccc3ncnc(Nc4cc(Cl)c(Cl)cc4F)c3c2)s1)C(=O)O (stereo not shown) [Compound C318]
inhibition of anchorage independent growth [2]: more active than Tarceva® | inhibition of EGFR(L858R, T790M) (EGFR (L858R, T790M); at 100 nM, ATP 10 μmol/L): about the same inhibition as Tarceva® | IC50 (EGFR [3]): 0.5 to 1 nM | inhibition of phosphorylation of Tyr 992 of EGFR (EGFR [1]; compared with Tarceva): but not Tyr 992 | inhibition of phosphorylation of Tyr 1068 of EGFR (EGFR [1]; compared with Tarceva): stronger activity than Tarceva®

O=C(O)CC(Sc1nn(CC(=O)Nc2ccc3ncnc(Nc4cc(Cl)c(Cl)cc4F)c3c2)c(=S)s1)C(=O)O (stereo not shown) [Compound C318N, 2-([4-[([4-[(4,5-dichloro-2-fluorophenyl)amino]quinazolin-6-yl]carbamoyl)methyl]-5-sulfanylidene-4,5-dihydro-1,3,4-thiadiazol-2-yl]sulfanyl)butanedioic acid]
activity to inhibit EGFR (L858R, T790M) kinase, comparison (EGFR (L858R, T790M); FIG. 7): better activity than C318 | inhibition at 0.1 µM (EGFR (L858R, T790M); at 100 nM, ATP 10 μmol/L): ~20% | IC50 (EGFR [3]): 0.5 to 1 nM
